Patent publication US20230085307A1, “PYRIDAZINONE COMPOUND AND HERBICIDE” (NISSAN CHEMICAL CORPORATION, priority 2019, published 2023)

Assays:
[1] = test system: wild oat; assay: Test Example 4: herbicidal effect by soil treatment (Table 19, symbol I); format: in vivo, wild oat (Avena fatua); settings: 320 g/ha
Procedure, shortened: (§1)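 Step 1: sow seeds in sterilized diluvial soil, cover ~1.5 cm. Step 2: spray diluted emulsion onto soil surface at predetermined rate. Step 3: greenhouse, 25–30° C, three weeks. Step 4: grade effect on each plant by earlier criteria.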

[2] = test system: late watergrass; assay: Test Example 2: herbicidal activity, application during weed generation under submerged conditions (Table 17, symbol A); format: in vivo, late watergrass (Echinochloa oryzicola); settings: AAH 320 g/ha; application during weed generation, submerged conditions
Procedure, shortened: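 Mixed weed seedlings in alluvial soil under a 4 cm water layer, greenhouse-grown at 25–30° C. Compound given as a diluted emulsion into the floodwater at the 1–2 leaf stage; response graded after three weeks.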

[3] = test system: Italian ryegrass; assay: Test Example 5: herbicidal effect by foliage application, plastic box (Table 20, symbol K); format: in vivo, Italian ryegrass (Lolium multiflorum); settings: foliage application, 320 g/ha, evaluated three weeks after application
Procedure, shortened: (§2)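 Foliar spray test: emulsion formulation diluted in water to a set application rate, sprayed onto 14-day-old plants raised in diluvial soil at 25° C to 30° C under glass. Both herbicidal effect and crop effect rated visually three weeks later.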

[4] = test system: late watergrass; assay: Test Example 1: herbicidal activity, application before weed generation under submerged conditions (Table 16, symbol A); format: in vivo, late watergrass (Echinochloa oryzicola); settings: 320 g/ha applied herbicide
Procedure, shortened: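 Emulsion formulation, water-diluted to set dose, was put onto the flooded surface (4 cm depth, alluvial soil) the same day weeds were sown and 2.5-leaf rice transplanted. After 3 weeks at 25-30 °C under glass, each species was rated 0 (≤5% kill) to 5 (≥90% kill).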

[5] = test system: windgrass; assay: Test Example 4: herbicidal effect by soil treatment (Table 19, symbol L); format: in vivo, windgrass (Apera spica-venti); settings: 320 g/ha
Procedure, shortened: as §1

[6] = test system: chickweed; assay: Test Example 4: herbicidal effect by soil treatment (Table 19, symbol P); format: in vivo, common chickweed (Stellaria media); settings: 320 g/ha
Procedure, shortened: as §1

[7] = test system: wild oat; assay: Test Example 5: herbicidal effect by foliage application, plastic box (Table 20, symbol I); format: in vivo, wild oat (Avena fatua); settings: foliage application, 320 g/ha, evaluated three weeks after application
Procedure, shortened: as §2

[8] = test system: barnyard grass; assay: Test Example 5: herbicidal effect by foliage application, plastic box (Table 20, symbol H); format: in vivo, barnyard grass (Echinochloa crus-galli); settings: foliage application, 320 g/ha, evaluated three weeks after application
Procedure, shortened: as §2

[9] = test system: redroot pigweed; assay: Test Example 5: herbicidal effect by foliage application, plastic box (Table 20, symbol N); format: in vivo, redroot pigweed (Amaranthus retroflexus); settings: foliage application, 320 g/ha, evaluated three weeks after application
Procedure, shortened: as §2

[10] = test system: Italian ryegrass; assay: Test Example 4: herbicidal effect by soil treatment (Table 19, symbol K); format: in vivo, Italian ryegrass (Lolium multiflorum); settings: 320 g/ha
Procedure, shortened: as §1

[11] = test system: Chinese sprangletop; assay: Test Example 3: herbicidal effect by foliage application, Wagner pot (Table 18, symbol D); format: in vivo, chinese sprangletop (Leptochloa chinensis); settings: 320 g/ha
Procedure, shortened: (§3)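 Plants were sown in alluvial soil held under 0.1–0.5 cm standing water and grown 14 days in a greenhouse at 25–30 °C. An emulsifiable formulation, water-diluted to the set dose, was then sprayed onto the foliage, and effects were scored three weeks later using previously defined criteria.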

[12] = test system: southern crabgrass; assay: Test Example 4: herbicidal effect by soil treatment (Table 19, symbol F); format: in vivo, southern crabgrass (Digitaria ciliaris); settings: 320 g/ha
Procedure, shortened: as §1

[13] = test system: lambsquarters; assay: Test Example 4: herbicidal effect by soil treatment (Table 19, symbol O); format: in vivo, lambsquarters (Chenopodium album); settings: 320 g/ha
Procedure, shortened: as §1

[14] = test system: chickweed; assay: Test Example 5: herbicidal effect by foliage application, plastic box (Table 20, symbol P); format: in vivo, common chickweed (Stellaria media); settings: foliage application, 320 g/ha, evaluated three weeks after application
Procedure, shortened: as §2

[15] = test system: lambsquarters; assay: Test Example 5: herbicidal effect by foliage application, plastic box (Table 20, symbol O); format: in vivo, lambsquarters (Chenopodium album); settings: foliage application, 320 g/ha, evaluated three weeks after application
Procedure, shortened: as §2

[16] = test system: rice flat sedge; assay: Test Example 3: herbicidal effect by foliage application, Wagner pot (Table 18, symbol E); format: in vivo, rice flat sedge (Cyperus iria); settings: 320 g/ha
Procedure, shortened: as §3

| SMILES | herbicidal effect rating, I: wild oat [1] | herbicidal effect rating, A: late watergrass [2] | herbicidal effect on K: Italian ryegrass [3] | Herbicidal effect on A: late watergrass (grade 0-5) [4] | herbicidal effect rating, L: windgrass [5] | herbicidal effect rating, P: chickweed [6] | herbicidal effect on I: wild oat [7] | herbicidal effect on H: barnyard grass [8] | herbicidal effect on N: redroot pigweed [9] | herbicidal effect rating, K: Italian ryegrass [10] | herbicidal effect on D (Chinese sprangletop), rating 0-5 [11] | herbicidal effect rating, F: southern crabgrass [12] | herbicidal effect rating, O: lambsquarters [13] | herbicidal effect on P: chickweed [14] | herbicidal effect on O: lambsquarters [15] | herbicidal effect on E (rice flat sedge), rating 0-5 [16] |
| --- | --- | --- | --- | --- | --- | --- | --- | --- | --- | --- | --- | --- | --- | --- | --- | --- |
| Cc1nn(C)c(=O)c(-c2c(-c3ccc(OCc4ccccc4)cc3)sc3ccc(F)cc23)c1O [2-062] | 0 (Herbicidal rate of 5% or less (almost no effect)) | 0 (Herbicidal rate of 5% or less (almost no effect)) | 1 (Herbicidal rate of 5% or more and less than 20%) | 4 (Herbicidal rate of 70% or more and less than 90%) | 0 (Herbicidal rate of 5% or less (almost no effect)) | 0 (Herbicidal rate of 5% or less (almost no effect)) | 0 (Herbicidal rate of 5% or less (almost no effect)) | 5 (Herbicidal rate of 90% or more (almost completely withered)) | 5 (Herbicidal rate of 90% or more (almost completely withered)) | 0 (Herbicidal rate of 5% or less (almost no effect)) | 5 (Herbicidal rate of 90% or more (almost completely withered)) | 1 (Herbicidal rate of 5% or more and less than 20%) | 3 (Herbicidal rate of 40% or more and less than 70%) | 5 (Herbicidal rate of 90% or more (almost completely withered)) | 5 (Herbicidal rate of 90% or more (almost completely withered)) | 5 (Herbicidal rate of 90% or more (almost completely withered)) |
| CCCC(=O)Oc1c(C)nn(C)c(=O)c1-c1c(-c2ccc(OC)c(F)c2)sc2ccc(F)cc12 [2-087] | 0 (Herbicidal rate of 5% or less (almost no effect)) | 0 (Herbicidal rate of 5% or less (almost no effect)) | 1 (Herbicidal rate of 5% or more and less than 20%) | 5 (Herbicidal rate of 90% or more (almost completely withered)) | 0 (Herbicidal rate of 5% or less (almost no effect)) | 3 (Herbicidal rate of 40% or more and less than 70%) | 0 (Herbicidal rate of 5% or less (almost no effect)) | 0 (Herbicidal rate of 5% or less (almost no effect)) | 4 (Herbicidal rate of 70% or more and less than 90%) | 0 (Herbicidal rate of 5% or less (almost no effect)) | 2 (Herbicidal rate of 20% or more and less than 40%) | 0 (Herbicidal rate of 5% or less (almost no effect)) | 5 (Herbicidal rate of 90% or more (almost completely withered)) | 5 (Herbicidal rate of 90% or more (almost completely withered)) | 4 (Herbicidal rate of 70% or more and less than 90%) | 5 (Herbicidal rate of 90% or more (almost completely withered)) |
| COc1ccc(-c2sc3ccc(F)cc3c2-c2c(O)c(C)nn(C)c2=O)cc1OC [2-088] | 0 (Herbicidal rate of 5% or less (almost no effect)) | 3 (Herbicidal rate of 40% or more and less than 70%) | 4 (Herbicidal rate of 70% or more and less than 90%) | 3 (Herbicidal rate of 40% or more and less than 70%) | 0 (Herbicidal rate of 5% or less (almost no effect)) | 2 (Herbicidal rate of 20% or more and less than 40%) | 0 (Herbicidal rate of 5% or less (almost no effect)) | 3 (Herbicidal rate of 40% or more and less than 70%) | 5 (Herbicidal rate of 90% or more (almost completely withered)) | 3 (Herbicidal rate of 40% or more and less than 70%) | 3 (Herbicidal rate of 40% or more and less than 70%) | 1 (Herbicidal rate of 5% or more and less than 20%) | 4 (Herbicidal rate of 70% or more and less than 90%) | 5 (Herbicidal rate of 90% or more (almost completely withered)) | 4 (Herbicidal rate of 70% or more and less than 90%) | 5 (Herbicidal rate of 90% or more (almost completely withered)) |
| CCCC(=O)Oc1c(C)nn(C)c(=O)c1-c1c(-c2ccc(OC)c(OC)c2)sc2ccc(F)cc12 [2-089] | 0 (Herbicidal rate of 5% or less (almost no effect)) | 4 (Herbicidal rate of 70% or more and less than 90%) | 4 (Herbicidal rate of 70% or more and less than 90%) | 5 (Herbicidal rate of 90% or more (almost completely withered)) | 0 (Herbicidal rate of 5% or less (almost no effect)) | 3 (Herbicidal rate of 40% or more and less than 70%) | 0 (Herbicidal rate of 5% or less (almost no effect)) | 4 (Herbicidal rate of 70% or more and less than 90%) | 4 (Herbicidal rate of 70% or more and less than 90%) | 4 (Herbicidal rate of 70% or more and less than 90%) | 3 (Herbicidal rate of 40% or more and less than 70%) | 4 (Herbicidal rate of 70% or more and less than 90%) | 5 (Herbicidal rate of 90% or more (almost completely withered)) | 5 (Herbicidal rate of 90% or more (almost completely withered)) | 4 (Herbicidal rate of 70% or more and less than 90%) | 5 (Herbicidal rate of 90% or more (almost completely withered)) |
| CCCC(=O)Oc1c(C)nn(C)c(=O)c1-c1c(-c2ccc3c(c2)OCO3)sc2ccc(F)cc12 [2-091] | 0 (Herbicidal rate of 5% or less (almost no effect)) | 0 (Herbicidal rate of 5% or less (almost no effect)) | 4 (Herbicidal rate of 70% or more and less than 90%) | 3 (Herbicidal rate of 40% or more and less than 70%) | 0 (Herbicidal rate of 5% or less (almost no effect)) | 1 (Herbicidal rate of 5% or more and less than 20%) | 0 (Herbicidal rate of 5% or less (almost no effect)) | 3 (Herbicidal rate of 40% or more and less than 70%) | 3 (Herbicidal rate of 40% or more and less than 70%) | 3 (Herbicidal rate of 40% or more and less than 70%) | 3 (Herbicidal rate of 40% or more and less than 70%) | 2 (Herbicidal rate of 20% or more and less than 40%) | 5 (Herbicidal rate of 90% or more (almost completely withered)) | 5 (Herbicidal rate of 90% or more (almost completely withered)) | 5 (Herbicidal rate of 90% or more (almost completely withered)) | 5 (Herbicidal rate of 90% or more (almost completely withered)) |
